Test results reported in patent publication US4782052A, “Octahydroindolo[2,3-a]quinolizin-1-yl-alkanecarboxylic acid amines and their therapeutically useful acid addition salts, pharmaceutical compositions containing them and process for preparing same” (Richter Gedeon Vegyeszeti Gyar Rt., priority 1984, dated 1988).
Where two headings read alike, the source gives them in different places.

Experiments:
[1] = test system: ethanolic hydrochloric acid-induced gastric edema and hemorrhagic lesions; assay: Inhibition of the ethanolic hydrochloric acid-induced gastric necrosis; type: in vivo, Female RG-Wistar rats; settings: for Hemorrhagic lesions / Edema: ± S.E.M.; for Hemorrhagic lesions: control 132 ± 7; for Edema: control 349 ± 81; for ED50: Rattus norvegicus, oral
Procedure: Inhibition of the ethanolic hydrochloric acid-induced gastric necrosis Female RG-Wistar rats weighing 120 to 150 g. were used for these investigations. The animals were starved for 24 hours while receiving water ad libitum. […] The test substances were orally administered 30 minutes before the treatment with the ethanolic hydrochloric acid. One hour later the animals were killed by an overdose of ether. Their stomach was removed and cut along the major curvature. The stomach was cleaned and its wet weight was weighed. The gastric edema was calculated from the difference between the obtained wet weight and the wet weight of the stomach of the untreated animals. Thereafter, the stomach was dried at room temperature and the presence of the hemorrhagic lesions was visually observed on the next day. The degree of the gastric necrosis was characterized by the mean value of the damage in mm./stomach. The results were statistically evaluated by Student's test.

[2] = test system: Indomethacin-induced intestinal ulceration; assay: Inhibition of the Indomethacin-induced intestinal ulceration; type: in vivo, H-Wistar rats; settings: for Tensile strength of the intestinal wall at 24 hours after the last treatment: 3 consecutive days, ± S.E.M., Indomethacin control 72 ± 10, untreated 237 ± 4; for Resistance of the intestinal wall as % of the normal value: Indomethacin control 30
Procedure: Inhibition of the Indomethacin-induced intestinal ulceration Unstarved H-Wistar rats weighing 120 to 150 g. were used for these investigations. The animals were orally treated with Indomethacin. Under these conditions a period of 24 to 48 hours is at least required for the development of visually observable intestinal ulcers. For evaluating the small intestine ulcers, the tensile strength of the intestinal wall was determined by using the inflation method of Ezer and Sporny (1975), as the strength of the intestinal wall is diminished by the ulceration-induced erosion. The small intestine from the pylorus down to the caecum was removed and after ligation of the end it was connected through a polyethylene tube with a W+W electronic BP 8005 pressure recorder (Ugo Basile, Italy). The whole small intestine was placed into a 0.9% saline solution at 37° C. and the pressure was increased until air bubbles appeared at the attenuated (weakened) sites of the intestinal wall. This pressure as expressed in mmHg is the measure of the tensile strength.

[3] = test system: aspirin-induced stomach ulcer; assay: Inhibition of the aspirin-induced stomach ulcer in rats; type: in vivo, Female H-Wistar rats; settings: for No. of ulcers per stomach: ± S.E.M., aspirin control 16.6 ± 5
Procedure: Inhibition of the aspirin-induced stomach ulcer in rats
This test is very common in the pharmacological practice. Female H-Wistar rats weighing 120 to 150 g. were starved for 24 hours while receiving water ad libitum. The stomach ulcer was induced by the oral administration of 100 mg./kg. aspirin in a Tween 80 suspension. The test substance was given immediately after the aspirin treatment. At the end of the 4th hour after treatment the animals were killed by an overdose of ether, their stomach was excised and cut along the major curvature. The stomach content was washed out and the hemorrhagic lesions on the glandular surface were counted.

[4] = test system: gastric acid secretion in Shay rats; assay: Inhibition of the gastric acid secretion in Shay rats; type: in vivo, Female H-Wistar rats; settings: for HCl output (4 hours): N 5, control 520 ± 28
Procedure: Inhibition of the gastric acid secretion in Shay rats
Female H-Wistar rats weighing 120 to 150 g were starved for 24 hours while receiving water ad libitum. Then, the pylorus of the animals was ligated under a mild ether anesthesia. The test substances were administered orally or intraperitoneally. After 4 hours the animals were killed by an overdose of ether and after excision of the stomach, the volume and pH value of the gastric juice were measured. The acid content was determined by titration against 0.01N sodium hydroxide solution by using phenolphthalein as indicator.

[5] = Oral toxicity in rats; settings: rat, in vivo
[6] = 3 × (50 + 10) mg./kg. p.o. with Indomethacin
[7] = 50 mg./kg. p.o., p < 0.01 vs control
[8] = 3 × (25 + 10) mg./kg. p.o. with Indomethacin

For `CN/C(=N/CCSCc1nc[nH]c1C)NC#N` [Cimetidine, reference compound], the “Edema Inhibition” value ([1]; 100 mg./kg. p.o.) was 14%, the “Hemorrhagic lesions Inhibition” value ([1]; 100 mg./kg. p.o., p < 0.01 vs control) was 69% and the Hemorrhagic lesions ([1]; 100 mg./kg. p.o., N 8) was 42 ± 13 mm. For the same molecule, the Edema ([1]; 100 mg./kg. p.o., N 8) was 301 ± 42 mg, the “Tensile strength of the intestinal wall at 24 hours after the last treatment” value (“Tensile strength of the intestinal wall” for short) [2, 6] was 20 ± 25 mmHg and the “Resistance of the intestinal wall as % of the normal value” (from here on “Resistance … as % of the normal value”) [2, 6] was 8%.

With `CN1CCN(CC(=O)N2c3ccccc3C(=O)Nc3cccnc32)CC1` [Pirenzepine, reference compound] the “Tensile strength of the intestinal wall” value [2, 6] was 121 ± 26 mmHg and the “Resistance … as % of the normal value” [2, 6] was 51%.

With `CC[C@@]1(CCC(=O)N[C@H](C)c2ccccc2)CCCN2CCc3c([nH]c4ccccc34)[C@@H]21` [RGH-2961, (-)-(1S,12bS)-1-ethyl-1,2,3,4,6,7,12,12b-octahydroindolo[2,3-a]quinolizin-1-yl-propionic acid (R)-1-phenylethylamide] the “Edema Inhibition” value ([1]; 1 mg./kg. p.o.) was 0%, the “Hemorrhagic lesions Inhibition” value ([1]; 1 mg./kg. p.o.) was 36% and the Hemorrhagic lesions ([1]; 1 mg./kg. p.o., N 7) was 88 ± 28 mm. For the same molecule, the Edema ([1]; 1 mg./kg. p.o., N 7) was 345 ± 93 mg, the “Edema Inhibition” value ([1]; 10 mg./kg. p.o.) was 44% and the “Hemorrhagic lesions Inhibition” value ([1]; 10 mg./kg. p.o., p < 0.01 vs control) was 62%. For the same molecule, the Hemorrhagic lesions ([1]; 10 mg./kg. p.o., N 7) was 51 ± 9 mm, the Edema ([1]; 10 mg./kg. p.o., N 7) was 197 ± 52 mg and the “Edema Inhibition” value [1, 7] was 85%. The “Hemorrhagic lesions Inhibition” value [1, 7] was 88%, the Hemorrhagic lesions ([1]; 50 mg./kg. p.o., N 7) was 17 ± 6 mm and the Edema ([1]; 50 mg./kg. p.o., N 7) was 53 ± 41 mg. For the same molecule, the ED50 ([1]; gastric edema, read-out: oral ED50 value of the gastric edema inhibition) was 12.5 mg/kg, the ED50 ([1]; hemorrhagic lesions, read-out: oral ED50 value of the gastric hemorrhagic lesion inhibition) was 3 mg/kg and the “No. of ulcers per stomach” value ([3]; 5 mg./kg. p.o. + aspirin 100 mg./kg., N 10) was 7.1 ± 2. For the same molecule, the Inhibition ([3]; 5 mg./kg. p.o., p < 0.01 vs aspirin control) was 58%, the Inhibition ([3]; 10 mg./kg. p.o.) was 32% and the “No. of ulcers per stomach” value ([3]; 10 mg./kg. p.o. + aspirin 100 mg./kg., N 10) was 11.0 ± 3. For the same molecule, the “No. of ulcers per stomach” value ([3]; 20 mg./kg. p.o. + aspirin 100 mg./kg., N 20) was 3.5 ± 2.1, the Inhibition ([3]; 20 mg./kg. p.o., p < 0.01 vs aspirin control) was 79% and the “No. of ulcers per stomach” value ([3]; 50 mg./kg. p.o. + aspirin 100 mg./kg., N 10) was 2.5 ± 1.5. For the same molecule, the Inhibition ([3]; 50 mg./kg. p.o., p < 0.01 vs aspirin control) was 85%, the ED50 ([3]; Rattus norvegicus, 4 h, aspirin-induced gastric ulcer formation, oral) was 8 mg/kg and the “Tensile strength of the intestinal wall” value ([2]; 3 × (12 + 10) mg./kg. p.o. with Indomethacin) was 132 ± 16 mmHg. The “Tensile strength of the intestinal wall” value [2, 8] was 195 ± 8 mmHg, the “Resistance … as % of the normal value” [2, 8] was 82% and the “Tensile strength of the intestinal wall” value [2, 6] was 214 ± 6 mmHg. The “Resistance … as % of the normal value” [2, 6] was 90%, the “Resistance … as % of the normal value” ([2]; p.o. with Indomethacin) was 55% and the HCl output inhibition ([4]; 6 mg./kg. i.p.) was 19%. The “HCl output (4 hours)” value ([4]; 6 mg./kg. i.p., ± S.E.M.) was 425 ± 40 μmole/100 g. of body weight, the HCl output inhibition ([4]; 10 mg./kg. p.o.) was 8% and the “HCl output (4 hours)” value ([4]; 10 mg./kg. p.o., ± S.E.M.) was 483 ± 40 μmole/100 g. of body weight. The HCl output inhibition ([4]; 12 mg./kg. i.p., p < 0.01 vs control) was 63%, the “HCl output (4 hours)” value ([4]; 12 mg./kg. i.p., ± S.E.M.) was 195 ± 25 μmole/100 g. of body weight and the HCl output inhibition ([4]; 20 mg./kg. p.o.) was 10%. The “HCl output (4 hours)” value ([4]; 20 mg./kg. p.o., ± S.E.M.) was 468 ± 35 μmole/100 g. of body weight, the HCl output inhibition ([4]; 25 mg./kg. i.p.) was 100% and the “HCl output (4 hours)” value ([4]; 25 mg./kg. i.p.) was 0 μmole/100 g. of body weight. For the same molecule, the HCl output inhibition ([4]; 40 mg./kg. p.o.) was 22%, the “HCl output (4 hours)” value ([4]; 40 mg./kg. p.o., ± S.E.M.) was 409 ± 30 μmole/100 g. of body weight and the LD50 [5] was over 1500 mg/kg.
